Laboratory results: patent US8101581B2, “Use of D-ribose to treat cardiac arrhythmias” (Bioenergy, Inc., priority 2007, dated 2012)
Entries after “also recorded” stand apart in the source; their conditions may differ. Where two headings read alike, the source gives them in different places.

What was measured:
atrial fibrillation = assay: D-ribose administered to patients with a diagnosis of atrial fibrillation; assay type: in vivo, human
Procedure: Eight patients with a diagnosis of atrial fibrillation were administered D-ribose. It can be seen from the above data that not all patients are completely and immediately relieved of atrial fibrillation. […] Therefore, it is recommended that patients ingest 10 to 15 grams of D-ribose daily.

[1] = cited from earlier work

O=C[C@H](O)[C@H](O)[C@H](O)CO [D-ribose]
Relief? (atrial fibrillation; Patient 1, duration of AT Recent, daily amount N/R, other medication CoQ): complete, immediate | Relief? (atrial fibrillation; Patient 2, duration, daily amount and other medications N/R): complete, immediate | Relief? (atrial fibrillation; Patient 3, 5 grams D-ribose daily): only partial relief; also recorded: “helped” | Relief? (atrial fibrillation; Patient 4, 5 grams D-ribose daily): delayed relief; also recorded: complete, within two | Relief? (atrial fibrillation; Patient 5, duration 20 years, 10 grams D-ribose daily, CoQ, L-carnitine, Mg): complete and immediate relief | Relief? (atrial fibrillation; Patient 6, 10-15 grams D-ribose daily): complete and immediate relief; also recorded: “practically | Relief? (atrial fibrillation; Patient 7, 5 grams D-ribose daily): complete, immediate | Side effects (atrial fibrillation; administration of low doses of D-ribose): no side effects | Persistence of relief of atrial fibrillation (atrial fibrillation; patients on continued D-ribose): more than a year | Digestive symptoms ([1]; dose of five grams, most people): without experiencing these digestive symptoms | Digestive symptoms ([1]; doses over about eight grams, many people): flatulence and diarrhea
